In US9949979B2, “Use of inhibitors of the activity or function of PI3K” (NOVARTIS AG, priority 2011, dated 2018) one finds IC50 data, which are given here for 1 compound.

In this assay the test system is TLR9. In words: TLR9-induced IFNalpha in human PBMC (CpG2216, AlphaLISA). The settings on record: read-out: TLR9-ligand induced IFNα in human PBMC IC50. It counts as cell-based. As to the method:
2.4 Determination of TLR9-Induced IFNalpha in Human Peripheral Blood Mononuclear Cells (PBMCs) and Isolated Plasmacytoid Dendritic Cells (pDCs)
Human blood (ca. 75 ml) was collected in 10 S-Monovette tubes containing Heparin (S-Monovette 7.5 mL NH Heparin 16 IU/mL blood; Starstedt). Leucosep™ tubes (30 mL #227290; Greiner Bio-one) were prepared by addition of 15 ml lymphocyte separation medium LSM1077™ per tube (#J15-004; PAA Laboratories) and centrifugation for 30 sec at 1000 g. Some 25 ml blood was transferred to Leucosep™ tubes following dilution with equal parts of PBS (without Ca2+/Mg2+; #14190-094). […] The PBMC were counted using a Countess® Automated cell counter (sample was pre-diluted 1:10 in Media, prior to the addition of equal volume (10 μl) of Trypan Blue). […]
Compounds were pre-diluted in 100% v/v DMSO (#41640-100 mL; Sigma-Aldrich), followed by transfer in Media (to achieve a final DMSO concentration of 0.25%). […] Plates were briefly centrifuged (200×g for 2 min at 22° C.) and supernatant samples (30 μl) removed for quantification of IFNα levels.
For quantification of IFNalpha the human interferon AlphaLISA Kit (#AL264F) from PerkinElmer was used. […] Data were collected for analysis and quantification of IFNα levels.
Data were analysed using Excel XL fit 4.0 (Microsoft) with XLfit add-in (IDBS; version 4.3.2). […]
In general terms: Bead proximity is the source of the signal in Alpha formats.

On to `CCC(=O)N1CC[C@H](Nc2ncnc3c2CN(c2cnc(OC)c(C(F)(F)F)c2)CC3)C1` [Example 67, 1-{(S)-3-[6-(6-Methoxy-5-trifluoromethyl-pyridin-3-yl)-5,6,7,8-tetrahydro-pyrido[4,3-d]pyrimidin-4-ylamino]-pyrrolidin-1-yl}-propan-1-one], for which the half-maximal inhibitory concentration (IC50) amounted to 109 nM.

What is called IC50 is the concentration that gives 50% inhibition.
